The test system of assay [1] is RS4;11 leukaemia tumour line. Nature of the assay: In vitro cytotoxicity (Microculture Tetrazolium Assay). The class given is cell-based. The following applies: RS4;11 cells, exposed for 48 hours, cell viability, read-out: IC50 (nM) MTT RS4;11. How it is done:
The cytotoxicity studies were carried out on the RS4;11 leukaemia tumour line.
The cells are distributed onto microplates and exposed to the test compounds for 48 hours.
The cell viability is then quantified by a colorimetric assay, the Microculture Tetrazolium Assay (Cancer Res., 1987, 47, 939-942).

The next assay has as its target Bcl-2 protein (histag-Bcl-2, UniProtKB P10415) (Homo sapiens (Human), UniProt P10415). Nature of the assay: Inhibition of Bcl-2 by the fluorescence polarisation technique. The class given is binding. The note with it: incubation for 2 hours, read-out: IC50 (nM) Bcl-2 FP. Put shortly:
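In pH 7.4 buffer (Hepes 10 mM, NaCl 150 mM, Tween20 0.05%), test compounds at increasing concentrations competed with a fluorescein peptide (1.00×10^−8 M final) for histag-Bcl-2 (2.50×10^−8 M final). Readout was fluorescence polarisation after a 2 h incubation.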
In general terms: Fluorescence polarisation rises when a labelled molecule tumbles more slowly, as on binding a larger partner.

Molecules are shown by their SMILES. Structures can show the parent of a compound that is named as a salt. Where two headings read alike, the source gives them in different places.

Bcl-2 protein, sequence (P10415 whole entry): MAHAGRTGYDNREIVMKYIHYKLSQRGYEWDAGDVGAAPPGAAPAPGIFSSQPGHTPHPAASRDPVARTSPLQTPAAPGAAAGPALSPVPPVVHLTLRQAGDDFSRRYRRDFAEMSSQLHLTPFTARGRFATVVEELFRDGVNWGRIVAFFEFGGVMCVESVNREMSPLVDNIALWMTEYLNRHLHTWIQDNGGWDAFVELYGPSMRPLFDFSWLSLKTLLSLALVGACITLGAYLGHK

Take `Cc1c(C(=O)N(c2ccc(O)cc2)c2cnc3c(c2)CCN3C)cc(-c2cc(Cl)ccc2C(=O)N2Cc3ccccc3C[C@H]2CN2CCOCC2)n1C` [Example 445, 5-(5-Chloro-2-{[(3S)-3-(morpholin-4-ylmethyl)-3,4-dihydroisoquinolin-2(1H)-yl]carbonyl}phenyl)-N-(4-hydroxyphenyl)-1,2-dimethyl-N-[1-(trideuteriomethyl)-2,3-dihydro-H-pyrrolo[2,3-b]pyridin-5-yl]-1H-pyrrole-3-carboxamide hydrochloride]: the IC50 (usually the concentration that gives 50% inhibition) amounted to 19 nM in assay [1] (hydrochloride) and 2 nM on Bcl-2 protein (hydrochloride).

Regarding `Cc1c(C(=O)N(c2ccc(O)cc2)c2cnc(F)cn2)cc(-c2cc(Cl)ccc2C(=O)N2Cc3ccccc3C[C@H]2CN2CCOCC2)n1C` [Example 446, 5-(5-Chloro-2-{[(3S)-3-(morpholin-4-ylmethyl)-3,4-dihydroisoquinolin-2(1H)-yl]carbonyl}phenyl)-N-(5-fluoropyrazin-2-yl)-N-(4-hydroxyphenyl)-1,2-dimethyl-1H-pyrrole-3-carboxamide hydrochloride], the IC50 worked out at 249 nM in assay [1] (Homo sapiens, RS4-11, 48 h) and 7.8 nM at Bcl-2 protein.

Turning to `Cc1c(C(=O)N(c2ccc(O)cc2)c2cnn(C)c2)cc(-c2ccc(F)cc2C(=O)N2Cc3ccccc3C[C@H]2CN2CCOCC2)n1C` [Example 447, 5-(4-Fluoro-2-{[(3S)-3-(morpholin-4-ylmethyl)-3,4-dihydroisoquinolin-2(1H)-yl]carbonyl}phenyl)-N-(4-hydroxyphenyl)-1,2-dimethyl-N-(1-methyl-1H-pyrazol-4-yl)-1H-pyrrole-3-carboxamide hydrochloride], the half-maximal inhibitory concentration (IC50) in assay [1] (Homo sapiens, RS4-11, 48 h) was > 600 nM; on Bcl-2 protein, 20 nM.

Turning to `Cl.[2H]C([2H])([2H])n1cc(N(C(=O)c2cc(-c3cc(Cl)ccc3C(=O)N3Cc4ccccc4C[C@H]3CN3CCOCC3)n(C)c2C)c2ccc(O)cc2)cc1C#N` [Example 448, 5-(5-Chloro-2-{[(3S)-3-(morpholin-4-ylmethyl)-3,4-dihydroisoquinolin-2(1H)-yl]carbonyl}phenyl)-N-[5-cyano-1-(trideuteriomethyl)-1H-pyrrol-3-yl]-N-(4-hydroxyphenyl)-1,2-dimethyl-1H-pyrrole-3-carboxamide hydrochloride], the half-maximal inhibitory concentration (IC50) in assay [1] (Homo sapiens, RS4-11, 48 h) came to 12.1 nM; at Bcl-2 protein, 2.4 nM.

For `Cc1c(C(=O)N(c2ccc(O)cc2)c2cc(C#N)nn2C)cc(-c2cc(Cl)ccc2C(=O)N2Cc3ccccc3C[C@H]2CN2CCOCC2)n1C` [Example 450, 5-(5-Chloro-2-{[(3S)-3-(morpholin-4-ylmethyl)-3,4-dihydroisoquinolin-2(1H)-yl]carbonyl}phenyl)-N-(3-cyano-1-methyl-1H-pyrazol-5-yl)-N-(4-hydroxyphenyl)-1,2-dimethyl-1H-pyrrole-3-carboxamide hydrochloride], the IC50 in assay [1] (Homo sapiens, RS4-11, 48 h) was 53.2 nM; on Bcl-2 protein it was 2.7 nM.

For the compound `Cc1c(C(=O)N(c2ccc(O)cc2)c2cnc3c(cnn3C)c2)cc(-c2cc(F)ccc2C(=O)N2Cc3ccccc3C[C@H]2CN2CCOCC2)n1C` [Example 451, 5-(5-Fluoro-2-{[(3S)-3-(morpholin-4-ylmethyl)-3,4-dihydroisoquinolin-2(1H)-yl]carbonyl}phenyl)-N-(4-hydroxyphenyl)-1,2-dimethyl-N-(1-methyl-1H-pyrazolo[3,4-b]pyridin-5-yl)-1H-pyrrole-3-carboxamide hydrochloride], the IC50 came to 102 nM in assay [1] (Homo sapiens, RS4-11, 48 h) and 2.9 nM on Bcl-2 protein.

Take `Cc1nn(C)cc1N(C(=O)c1cc(-c2cc(F)ccc2C(=O)N2Cc3ccccc3C[C@H]2CN2CCOCC2)n(C)c1C)c1ccc(O)cc1` [Example 452, N-(1,3-Dimethyl-1H-pyrazol-4-yl)-5-(5-fluoro-2-{[(3S)-3-(morpholin-4-ylmethyl)-3,4-dihydroisoquinolin-2(1H)-yl]carbonyl}phenyl)-N-(4-hydroxyphenyl)-1,2-dimethyl-1H-pyrrole-3-carboxamide hydrochloride]: the half-maximal inhibitory concentration (IC50) in assay [1] (Homo sapiens, RS4-11, 48 h) amounted to 112 nM; on Bcl-2 protein, 8.3 nM.

As to `Cc1c(N(C(=O)c2cc(-c3cc(F)ccc3C(=O)N3Cc4ccccc4C[C@H]3CN3CCOCC3)n(C)c2C)c2ccc(O)cc2)cnn1C` [Example 453, N-(1,5-Dimethyl-1H-pyrazol-4-yl)-5-(5-fluoro-2-{[(3S)-3-(morpholin-4-ylmethyl)-3,4-dihydroisoquinolin-2(1H)-yl]carbonyl}phenyl)-N-(4-hydroxyphenyl)-1,2-dimethyl-1H-pyrrole-3-carboxamide hydrochloride], the half-inhibitory concentration (IC50) is 99.9 nM in assay [1] (Homo sapiens, RS4-11, 48 h) and 6.9 nM at Bcl-2 protein.

For the compound `Cc1c(N(C(=O)c2cc(-c3cc(Cl)ccc3C(=O)N3Cc4ccccc4CC3C(F)(F)F)n(C)c2C)c2ccc(O)cc2)cc(C#N)n1C` (stereo not shown) [Example 454, 5-(5-Chloro-2-{[3-(trifluoromethyl)-3,4-dihydroisoquinolin-2(1H)-yl]carbonyl}phenyl)-N-(5-cyano-1,2-dimethyl-1H-pyrrol-3-yl)-N-(4-hydroxyphenyl)-1,2-dimethyl-1H-pyrrole-3-carboxamide], the IC50 amounted to 158 nM in assay [1] (Homo sapiens, RS4-11, 48 h) and 6.5 nM at Bcl-2 protein.

Take `Cc1c(C(=O)N(c2ccc(O)cc2)c2cc(C#N)n(CCN3CCOCC3)c2C)cc(-c2cc(Cl)ccc2C(=O)N2Cc3ccccc3C[C@H]2C)n1C` [Example 455, 5-(5-Chloro-2-{[(3R)-3-methyl-3,4-dihydroisoquinolin-2(1H)-yl]-carbonyl}phenyl)-N-{5-cyano-2-methyl-1-[2-(morpholin-4-yl)ethyl]-1H-pyrrol-3-yl}-N-(4-hydroxyphenyl)-1,2-dimethyl-1H-pyrrole-3-carboxamide hydrochloride]: the IC50 in assay [1] (Homo sapiens, RS4-11, 48 h) stood at 11.8 nM; at Bcl-2 protein it was 1.9 nM.

With `Cc1c(C(=O)N(c2ccc(O)cc2)c2cnc(OCCN3CCOCC3)nc2)cc(-c2cc(Cl)ccc2C(=O)N2Cc3ccccc3C[C@H]2C)n1C` [Example 456, 5-(5-Chloro-2-{[(3R)-3-methyl-3,4-dihydroisoquinolin-2(1H)-yl]-carbonyl}phenyl)-N-(4-hydroxyphenyl)-1,2-dimethyl-N-{2-[2-(morpholin-4-yl)-ethoxy]pyrimidin-5-yl}-1H-pyrrole-3-carboxamide hydrochloride], the 50% inhibitory concentration (IC50) was found to be 80.6 nM in assay [1] (Homo sapiens, RS4-11, 48 h) and 2.7 nM at Bcl-2 protein.

For `Cc1c(N(C(=O)c2cc(-c3cc(Cl)ccc3C(=O)N3Cc4ccccc4C[C@H]3CN3CCOCC3)n(C)c2C)c2ccc(O)cc2)cn(C)c1C#N` [Example 458, 5-(5-Chloro-2-{[(3S)-3-(morpholin-4-ylmethyl)-3,4-dihydroisoquinolin-2(1H)-yl]carbonyl}phenyl)-N-(5-cyano-1,4-dimethyl-1H-pyrrol-3-yl)-N-(4-hydroxyphenyl)-1,2-dimethyl-1H-pyrrole-3-carboxamide hydrochloride], the IC50 in assay [1] (Homo sapiens, RS4-11, 48 h) is 197 nM; at Bcl-2 protein, 10.5 nM.

For `CCn1c(C#N)cc(N(C(=O)c2cc(-c3cc(Cl)ccc3C(=O)N3Cc4ccccc4C[C@H]3CN3CCOCC3)n(C)c2C)c2ccc(O)cc2)c1C` [Example 459, 5-(5-Chloro-2-{[(3S)-3-(morpholin-4-ylmethyl)-3,4-dihydroisoquinolin-2(1H)-yl]carbonyl}phenyl)-N-(5-cyano-1-ethyl-2-methyl-1H-pyrrol-3-yl)-N-(4-hydroxyphenyl)-1,2-dimethyl-1H-pyrrole-3-carboxamide hydrochloride], the concentration for half-maximal inhibition (IC50) turned out to be 5.93 nM in assay [1] (Homo sapiens, RS4-11, 48 h) and 2.5 nM on Bcl-2 protein.

In the case of `Cc1c(C(=O)N(c2ccc(O)cc2)c2cnn(C3CCOC3)c2)cc(-c2cc(Cl)ccc2C(=O)N2Cc3ccccc3C[C@H]2CCCN2CCOCC2)n1C` (stereo partly drawn) [Example 460, 5-(5-Chloro-2-{[(3R)-3-[3-(morpholin-4-yl)propyl]-3,4-dihydroisoquinolin-2(1H)-yl]carbonyl}phenyl)-N-(4-hydroxyphenyl)-1,2-dimethyl-N-[1-(tetrahydrofuran-3-yl)-1H-pyrazol-4-yl]-1H-pyrrole-3-carboxamide hydrochloride], the IC50 in assay [1] (Homo sapiens, RS4-11, 48 h) came to 22.9 nM; at Bcl-2 protein, 2.8 nM.

Consider `Cc1c(N(C(=O)c2cc(-c3cc(Cl)ccc3C(=O)N3Cc4ccccc4C[C@H]3CCCN3CCOCC3)n(C)c2C)c2ccccc2)cc(C#N)n1C` [Example 461, 5-(5-Chloro-2-{[(3R)-3-[3-(morpholin-4-yl)propyl]-3,4-dihydroisoquinolin-2(1H)-yl]carbonyl}phenyl)-N-(5-cyano-1,2-dimethyl-1H-pyrrol-3-yl)-1,2-dimethyl-N-phenyl-1H-pyrrole-3-carboxamide hydrochloride], for which the IC50 in assay [1] (Homo sapiens, RS4-11, 48 h) came to 18.6 nM; on Bcl-2 protein, 3.1 nM.

Consider `Cc1cc(N(C(=O)c2cc(-c3cc(Cl)ccc3C(=O)N3Cc4ccccc4C[C@H]3CN3CCOCC3)n(C)c2C)c2ccc(O)cc2)no1` [Example 462, 5-(5-Chloro-2-{[(3S)-3-(morpholin-4-ylmethyl)-3,4-dihydroisoquinolin-2(1H)-yl]carbonyl}phenyl)-N-(4-hydroxyphenyl)-1,2-dimethyl-N-(5-methyl-1,2-oxazol-3-yl)-1H-pyrrole-3-carboxamide], for which the half-maximal inhibitory concentration (IC50) in assay [1] (Homo sapiens, RS4-11, 48 h) worked out at 368 nM; on Bcl-2 protein it was 13.3 nM.

For `Cc1c(C(=O)N(c2cnc3c(ccn3C)c2)c2ccc(O)cn2)cc(-c2cc(Cl)ccc2C(=O)N2Cc3ccccc3C[C@H]2CN2CCOCC2)n1C` [Example 464, 5-(5-Chloro-2-{[(3S)-3-(morpholin-4-ylmethyl)-3,4-dihydroisoquinolin-2(1H)-yl]carbonyl}phenyl)-N-(5-hydroxypyridin-2-yl)-1,2-dimethyl-N-(1-methyl-1H-pyrrolo[2,3-b]pyridin-5-yl)-1H-pyrrole-3-carboxamide dihydrochloride], the half-inhibitory concentration (IC50) in assay [1] (Homo sapiens, RS4-11, 48 h) worked out at 723 nM; at Bcl-2 protein, 36.6 nM.

The values above are taken from US9108983B2, “Pyrrole compounds, a process for their preparation and pharmaceutical compositions containing them” (LES LABORATOIRES SERVIER, priority 2013, dated 2015).
